Assay [1] relates to various HDACs. Set-up: method as in PMID 25738536. Conditions: FDA approved HDAC inhibitors; cited from earlier work.
For assay [2], the target named is HDAC1-MTA1-RBBP4 (Homo sapiens, UniProt Q09028+Q13330+Q13547). The experiment in a line: Fluorescence-based HDAC inhibition assay (BOC-Lys-AMC substrate). Format: biochemical. As to conditions: 50 nM HDAC1-MTA1-RBBP4, 30 min at 37 °C. As to the method: SPIs 11–14 were assessed in a fluorescence-based inhibition assay to determine potency as HDAC inhibitors (Table 2). […] The lower activity of SPIs 12–13 can be attributed to the lower zinc binding affinity of ketones. In the future these amino acids will be incorporated in various histone tails to generate a library to identify important binding interactions through additional crystal structure studies. The cell permeability of these peptides will also be investigated to determine their usefulness as cellular probes.
HDAC activity was measured by using fluorescent BOC-Lys-AMC substrate in a black 96-well format. 50 nM HDAC1-MTA1-RBBP4 was incubated with inhibitor and 100 µM BOC-Lys-AMC substrate for 30 min at 37 °C in a final volume of 50 µl (50 mM Tris pH 7.5, 150 mM NaCl, 5% Glycerol). The assay was developed by the addition of 50 µl of developer solution (2 µM TSA, 10 mg ml -1 Trypsin, 50 mM Tris pH 7.5, 100 mM NaCl). Fluorescence was measured at 335/460 nm using a Victor X5 plate reader (Perkin Elmer). All measurements were performed in triplicate and data analysed using GraphPad Prism (version 7.0, GraphPad Software, Inc). In the case of titrations IC50 values were calculated by nonlinear curve fitting with a one-site binding (hyperbola) model (Y=Bmax*X/(Kd+X).
Sequence Yield Purity IC50 Retention time Peptide content
(1 picture or pasted object on this page, not shown here)

The test system of assay [3] is class I HDAC. Conditions: cited from earlier work. The source says: These inhibitors function by coordinating with the HDAC active site zinc through a side chain that has zinc binding properties such as a hydroxamic acid or ethyl ketone.

Starred links: 1 amine or outer side, 2 acyl side, 3 side chain; linkers in the order of their positions; H or OH if unused. Non-standard residues stand in square brackets, D forms with d. Residues, ends and D or L forms follow the SMILES beside them. *: point of attachment. X1 = CCC(=O)CCCCC[C@H](N[*:1])C(=O)[*:2]; Asu = N[C@@H](CCCCCC(=O)O)C(=O)O; NHOH = ON*

These results are taken from PMC6503537, “Synthesis of HDAC Substrate Peptidomimetic Inhibitors Using Fmoc Amino Acids Incorporating Zinc-Binding Groups” (Organic Letters, 2019).

Sequence of HDAC1-MTA1-RBBP4 (Q13547 whole entry): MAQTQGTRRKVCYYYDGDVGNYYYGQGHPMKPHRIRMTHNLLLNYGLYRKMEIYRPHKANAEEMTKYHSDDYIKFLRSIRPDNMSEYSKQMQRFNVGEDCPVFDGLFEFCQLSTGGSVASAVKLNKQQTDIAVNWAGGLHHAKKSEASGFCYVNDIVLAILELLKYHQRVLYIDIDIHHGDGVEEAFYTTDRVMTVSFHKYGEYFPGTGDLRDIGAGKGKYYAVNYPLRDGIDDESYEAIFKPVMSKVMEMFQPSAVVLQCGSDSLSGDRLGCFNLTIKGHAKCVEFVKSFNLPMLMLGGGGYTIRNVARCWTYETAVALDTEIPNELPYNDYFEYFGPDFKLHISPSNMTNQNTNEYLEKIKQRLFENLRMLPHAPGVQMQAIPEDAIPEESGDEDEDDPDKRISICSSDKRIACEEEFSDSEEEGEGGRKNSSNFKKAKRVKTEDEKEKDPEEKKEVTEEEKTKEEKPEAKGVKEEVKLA
Sequence of HDAC1-MTA1-RBBP4 (Q13330 whole entry partner): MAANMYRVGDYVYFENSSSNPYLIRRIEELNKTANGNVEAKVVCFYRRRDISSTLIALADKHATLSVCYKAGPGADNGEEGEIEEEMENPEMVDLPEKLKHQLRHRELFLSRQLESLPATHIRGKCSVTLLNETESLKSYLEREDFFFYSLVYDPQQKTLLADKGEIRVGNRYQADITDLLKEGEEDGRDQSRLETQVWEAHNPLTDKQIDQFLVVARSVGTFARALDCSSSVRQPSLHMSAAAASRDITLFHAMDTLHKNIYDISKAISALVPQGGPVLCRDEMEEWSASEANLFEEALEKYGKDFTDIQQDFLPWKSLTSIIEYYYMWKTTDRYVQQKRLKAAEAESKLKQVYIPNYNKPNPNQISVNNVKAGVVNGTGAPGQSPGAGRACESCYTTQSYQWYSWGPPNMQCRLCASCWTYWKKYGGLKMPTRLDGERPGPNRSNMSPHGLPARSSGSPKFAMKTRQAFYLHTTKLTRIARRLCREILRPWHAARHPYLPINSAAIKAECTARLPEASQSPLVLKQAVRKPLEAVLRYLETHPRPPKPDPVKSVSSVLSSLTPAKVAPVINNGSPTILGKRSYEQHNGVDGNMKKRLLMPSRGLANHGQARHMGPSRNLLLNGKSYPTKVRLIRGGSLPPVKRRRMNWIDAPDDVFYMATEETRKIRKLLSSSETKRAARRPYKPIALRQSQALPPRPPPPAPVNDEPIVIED
Sequence of HDAC1-MTA1-RBBP4 (Q09028 whole entry partner): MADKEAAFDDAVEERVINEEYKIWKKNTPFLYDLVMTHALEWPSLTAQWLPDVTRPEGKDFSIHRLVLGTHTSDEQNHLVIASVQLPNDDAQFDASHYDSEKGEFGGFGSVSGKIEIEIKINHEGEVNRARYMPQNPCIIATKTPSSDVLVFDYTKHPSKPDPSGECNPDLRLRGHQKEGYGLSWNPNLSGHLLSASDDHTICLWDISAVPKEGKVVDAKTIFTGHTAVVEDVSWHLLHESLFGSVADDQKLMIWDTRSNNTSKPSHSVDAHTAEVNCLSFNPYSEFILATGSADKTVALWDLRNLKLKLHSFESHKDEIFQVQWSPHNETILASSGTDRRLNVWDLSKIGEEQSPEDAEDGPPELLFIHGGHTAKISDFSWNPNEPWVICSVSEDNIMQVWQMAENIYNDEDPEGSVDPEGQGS

`O=C(/C=C/c1cccc(S(=O)(=O)Nc2ccccc2)c1)NO` [Belinostat]: the “HDAC specificity, result in words” value in assay [1] is listed as “nonspecific across various HDACs”.

For `Cc1[nH]c2ccccc2c1CCNCc1ccc(/C=C/C(=O)NO)cc1` [Panobinostat], the “HDAC specificity, result in words” value in assay [1] is “nonspecific across various HDACs”.

Turning to `CC(=O)N[C@@H](CCCCN)C(=O)N[C@@H](C)C(=O)N[C@@H](C)C(=O)N[C@@H](CCCNC(=N)N)C(=O)N[C@@H](CCCCCC(=O)NO)C(=O)N[C@@H](CO)C(=O)N[C@@H](C)C(N)=O` [SPI 11] (Ac-KAAR[Asu](NHOH)SA-NH2), the “HDAC inhibition, result in words” value in assay [2] (BOC-Lys-AMC substrate, pH 7.5, tested concentration not given) is given as “comparable to our previously reported SPI based on the H4 peptide sequence”.

In assay [2] (100 M BOC-Lys-AMC substrate (so in the source), 50 mM Tris pH 7.5, 150 mM NaCl, 5% Glycerol, developer TSA/Trypsin, fluorescence 335/460 nm, triplicate, one-site binding fit, unit printed µM in SI), `CCC(=O)CCCCC[C@H](NC(=O)[C@H](CCCNC(=N)N)NC(=O)[C@H](C)NC(=O)[C@H](C)NC(=O)[C@H](CCCCN)NC(C)=O)C(=O)N[C@@H](CO)C(=O)N[C@@H](C)C(N)=O` [SPI 12] (Ac-KAAR[X1]SA-NH2) came in with an IC50 of 17 µM.

Take `O=C(CCCCCCC(=O)Nc1ccccc1)NO` [Vorinostat]: the “HDAC specificity, result in words” value in assay [1] is “nonspecific across various HDACs”.

For Apicidin A, in assay [3], the “HDAC inhibition, result in words” value is “class I selective HDAC inhibition in the nanomolar range”.

Romidepsin: the “HDAC specificity, result in words” value in assay [1] is recorded as “nonspecific across various HDACs”.
